# Target: human adenosine A2b receptor (Homo sapiens (Human), UniProt P29275)
# Experiment: Cellular in vitro reporter gene test for A2b receptor activity (CHO-K1, CRE-luciferase, NECA stimulation)
# Format: cell-based
# Conditions: recombinant CHO-K1 cell line, CRE-luciferase reporter, antagonism of EC50 concentration of NECA; in some cases means of several determinations, rounded to two significant figures; read-out: A2b receptor IC50
# Outline: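 CHO-K1 cells with CRE-driven luciferase; antagonists co-incubated with NECA at its EC50, determined in a pre-experiment on each test day. Luciferase read by luminescence 3 h after NECA addition.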
# human adenosine A2b receptor, sequence (P29275 whole entry): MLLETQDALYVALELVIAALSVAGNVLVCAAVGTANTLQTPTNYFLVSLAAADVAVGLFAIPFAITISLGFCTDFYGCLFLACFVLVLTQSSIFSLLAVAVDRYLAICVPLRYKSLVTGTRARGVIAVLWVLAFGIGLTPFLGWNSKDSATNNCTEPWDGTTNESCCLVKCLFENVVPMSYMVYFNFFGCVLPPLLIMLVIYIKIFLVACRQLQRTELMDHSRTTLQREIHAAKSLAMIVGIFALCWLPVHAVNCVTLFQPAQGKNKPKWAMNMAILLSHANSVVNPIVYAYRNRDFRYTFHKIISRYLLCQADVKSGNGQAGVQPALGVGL
row,SMILES,IC50
1,"COCCn1c(=O)c2c(C)c(Cn3[nH]ccc3=O)sc2n(CC2CCCO2)c1=O (single isomer, unassigned) [Example 291, 3-(2-Methoxyethyl)-5-methyl-6-[(5-oxo-2,5-dihydro-1H-pyrazol-1-yl)methyl]-1-(tetrahydrofuran-2-ylmethyl)thieno[2,3-d]pyrimidine-2,4(1H,3H)-dione]",190 nM
2,"COCCn1c(=O)n(CCCF)c(=O)c2c(C)c(CN3CCNC3=O)sc21 [Example 224, 3-(3-Fluoropropyl)-1-(2-methoxyethyl)-5-methyl-6-[(2-oxoimidazolidin-1-yl)methyl]thieno[2,3-d]pyrimidine-2,4(1H,3H)-dione]",31 nM
3,"Cc1c(Cn2[nH]ccc2=O)sc2c1c(=O)n(CC(F)(F)F)c(=O)n2CC1CCCO1 (racemic) [Example 284, 5-Methyl-6-[(5-oxo-2,5-dihydro-1H-pyrazol-1-yl)methyl]-1-(tetrahydrofuran-2-ylmethyl)-3-(2,2,2-trifluoroethyl)thieno[2,3-d]pyrimidine-2,4(1H,3H)-dione]",79 nM
4,"Cc1c(CN2CCNC(=O)C2=O)sc2c1c(=O)n(CC(F)(F)F)c(=O)n2CC1CCO1 (racemic) [Example 123, 6-[(2,3-Dioxopiperazin-1-yl)methyl]-5-methyl-1-(oxetan-2-ylmethyl)-3-(2,2,2-trifluoroethyl)thieno[2,3-d]pyrimidine-2,4(1H,3H)-dione]",53 nM
5,"Cc1c(CN2CCNC2=S)sc2c1c(=O)n(CC(C)C)c(=O)n2CC1CCO1 (single isomer, unassigned) [Example 147, 3-Isobutyl-5-methyl-1-(oxetan-2-ylmethyl)-6-[(2-thioxoimidazolidin-1-yl)methyl]thieno[2,3-d]pyrimidine-2,4(1H,3H)-dione]",22 nM
6,"Cc1c(CN2CCNC(=O)C2=O)sc2c1c(=O)n(C(C)C)c(=O)n2CC1CCCO1 (single isomer, unassigned) [Example 481, 6-[(2,3-Dioxopiperazin-1-yl)methyl]-3-isopropyl-5-methyl-1-(tetrahydrofuran-2-ylmethyl)thieno[2,3-d]pyrimidine-2,4(1H,3H)-dione]",140 nM
7,"COCCn1c(=O)c2c(C)c(CN3CCNC(=O)C3=O)sc2n(CC2CCCO2)c1=O (racemic) [Example 278, 6-[(2,3-Dioxopiperazin-1-yl)methyl]-3-(2-methoxyethyl)-5-methyl-1-(tetrahydrofuran-2-ylmethyl)thieno[2,3-d]pyrimidine-2,4(1H,3H)-dione]",130 nM
8,"Cc1c(Cn2[nH]ccc2=O)sc2c1c(=O)n(C(C)C)c(=O)n2CC1CCCO1 (racemic) [Example 134, 3-Isopropyl-5-methyl-6-[(5-oxo-2,5-dihydro-1H-pyrazol-1-yl)methyl]-1-(tetrahydrofuran-2-ylmethyl)thieno[2,3-d]pyrimidine-2,4(1H,3H)-dione]",30 nM
9,"CCOCCn1c(=O)n(CC(C)C)c(=O)c2c(C)c(CN3CCNC(=O)C3=O)sc21 [Example 271, 6-[(2,3-Dioxopiperazin-1-yl)methyl]-1-(2-ethoxyethyl)-3-isobutyl-5-methylthieno[2,3-d]pyrimidine-2,4(1H,3H)-dione]",47 nM
10,"Cc1c(CN2CCNC(=O)C2=O)sc2c1c(=O)n(CC(F)F)c(=O)n2C [Example 275, 3-(2,2-Difluoroethyl)-6-[(2,3-dioxopiperazin-1-yl)methyl]-1,5-dimethylthieno[2,3-d]pyrimidine-2,4(1H,3H)-dione]",76 nM
11,"CCOCCn1c(=O)c2c(C)c(CN3CCNC3=O)sc2n(CCCF)c1=O [Example 411, 3-(2-Ethoxyethyl)-1-(3-fluoropropyl)-5-methyl-6-[(2-oxoimidazolidin-1-yl)methyl]thieno[2,3-d]pyrimidine-2,4(1H,3H)-dione]",53 nM
12,"COCCn1c(=O)n(C(C)COC)c(=O)c2c(C)c(CN3CCNC3=O)sc21 (single isomer, unassigned) [Example 331, 1-(2-Methoxyethyl)-3-(1-methoxypropan-2-yl)-5-methyl-6-[(2-oxoimidazolidin-1-yl)methyl]thieno[2,3-d]pyrimidine-2,4(1H,3H)-dione]",61 nM
13,"CCn1c(=O)c2c(C)c(CN3CC(=O)NCC3=O)sc2n(CCC(F)(F)F)c1=O [Example 497, 6-[(2,5-Dioxopiperazin-1-yl)methyl]-3-ethyl-5-methyl-1-(3,3,3-trifluoropropyl)thieno[2,3-d]pyrimidine-2,4(1H,3H)-dione]",730 nM
14,"CCn1c(=O)c2c(C)c(CN3CCNC3=O)sc2n(CCN(C)C)c1=O [Example 83, 1-[2-(Dimethylamino)ethyl]-3-ethyl-5-methyl-6-[(2-oxoimidazolidin-1-yl)methyl]thieno[2,3-d]pyrimidine-2,4(1H,3H)-dione]",380 nM

# The next molecules have a lower IC50 than those just listed; values first:
row,IC50,SMILES
1,11 nM,"COC(C)Cn1c(=O)c2c(C)c(CN3CCNC3=O)sc2n(CCC(F)(F)F)c1=O (single isomer, unassigned) [Example 414, 3-(2-Methoxypropyl)-5-methyl-6-[(2-oxoimidazolidin-1-yl)methyl]-1-(3,3,3-trifluoropropyl)thieno[2,3-d]pyrimidine-2,4(1H,3H)-dione]"
2,13 nM,"Cc1c(Cn2cc[nH]c2=O)sc2c1c(=O)n(CC(F)(F)F)c(=O)n2CC1CCCO1 (single isomer, unassigned) [Example 342, 5-Methyl-6-[(2-oxo-2,3-dihydro-1H-imidazol-1-yl)methyl]-1-(tetrahydrofuran-2-ylmethyl)-3-(2,2,2-trifluoroethyl)thieno[2,3-d]pyrimidine-2,4(1H,3H)-dione]"
3,12 nM,"CCn1c(=O)c2c(C)c(CN3CCNC3=S)sc2n(CCOC(C)C)c1=O [Example 33, 3-Ethyl-1-(2-isopropoxyethyl)-5-methyl-6-[(2-thioxoimidazolidin-1-yl)methyl]thieno[2,3-d]pyrimidine-2,4(1H,3H)-dione]"
4,19 nM,"CCn1c(=O)c2c(C)c(CN3Cc4ccccc4C3=O)sc2n(CCC(F)(F)F)c1=O [Example 11, 3-Ethyl-5-methyl-6-[(1-oxo-1,3-dihydro-2H-isoindol-2-yl)methyl]-1-(3,3,3-trifluoropropyl)thieno[2,3-d]pyrimidine-2,4(1H,3H)-dione]"
5,2.9 nM,"Cc1c(CN2CCNC2=S)sc2c1c(=O)n(CC(F)F)c(=O)n2CCC(F)(F)F [Example 160, 3-(2,2-Difluoroethyl)-5-methyl-6-[(2-thioxoimidazolidin-1-yl)methyl]-1-(3,3,3-trifluoropropyl)thieno[2,3-d]pyrimidine-2,4(1H,3H)-dione]"
6,13 nM,"CCOCCn1c(=O)n(CC)c(=O)c2c(C)c(CN3CCNC3=O)sc21 [Example 60, 1-(2-Ethoxyethyl)-3-ethyl-5-methyl-6-[(2-oxoimidazolidin-1-yl)methyl]thieno[2,3-d]pyrimidine-2,4(1H,3H)-dione]"
7,9.8 nM,"COC(=O)N=C1NCCN1Cc1sc2c(c1C)c(=O)n(CC(F)(F)F)c(=O)n2CC1CCCO1 (racemic) [Example 384, Methyl [1-{[5-methyl-2,4-dioxo-1-(tetrahydrofuran-2-ylmethyl)-3-(2,2,2-trifluoroethyl)-1,2,3,4-tetrahydrothieno[2,3-d]pyrimidin-6-yl]methyl}imidazolidin-2-ylidene]carbamate]"
8,9.9 nM,"CCn1c(=O)c2c(C)c(CN3CCNC3=O)sc2n(CCC(C)C)c1=O [Example 79, 3-Ethyl-5-methyl-1-(3-methylbutyl)-6-[(2-oxoimidazolidin-1-yl)methyl]thieno[2,3-d]pyrimidine-2,4(1H,3H)-dione]"
9,5.2 nM,"CCn1c(=O)c2c(C)c(CN3CCNC3=NC#N)sc2n(CCOC)c1=O [Example 117, [1-{[3-Ethyl-1-(2-methoxyethyl)-5-methyl-2,4-dioxo-1,2,3,4-tetrahydrothieno[2,3-d]pyrimidin-6-yl]methyl}imidazolidin-2-ylidene]cyanamide]"
10,1.3 nM,"CCn1c(=O)c2c(C)c(CN3CCNC3=O)sc2n(CC2CC2(F)F)c1=O (single isomer, unassigned; enantiomer 1) [Example 55, 1-[(2,2-Difluorocyclopropyl)methyl]-3-ethyl-5-methyl-6-[(2-oxoimidazolidin-1-yl)methyl]thieno[2,3-d]pyrimidine-2,4(1H,3H)-dione (Enantiomer 1)]"
11,8.9 nM,"CCn1c(=O)c2c(C)c(CN3CCNC3=O)sc2n(CC2CCCO2)c1=O (racemic) [Example 68, 3-Ethyl-5-methyl-6-[(2-oxoimidazolidin-1-yl)methyl]-1-(tetrahydrofuran-2-ylmethyl)thieno[2,3-d]pyrimidine-2,4(1H,3H)-dione (racemate)]"
12,6.1 nM,"COC(C)Cn1c(=O)c2c(C)c(CN3CCNC3=NC#N)sc2n(CCC(F)(F)F)c1=O (racemic) [Example 454, [1-{[3-(2-Methoxypropyl)-5-methyl-2,4-dioxo-1-(3,3,3-trifluoropropyl)-1,2,3,4-tetrahydrothieno[2,3-d]pyrimidin-6-yl]methyl}imidazolidin-2-ylidene]cyanamide]"
13,9.9 nM,"CCn1c(=O)c2c(C)c(CN3CCNC3=NC#N)sc2n(CC2CCCO2)c1=O (single isomer, unassigned) [Example 261, [1-{[3-Ethyl-5-methyl-2,4-dioxo-1-(tetrahydrofuran-2-ylmethyl)-1,2,3,4-tetrahydrothieno[2,3-d]pyrimidin-6-yl]methyl}imidazolidin-2-ylidene]cyanamide]"
14,17 nM,"COC(C)(C)Cn1c(=O)c2c(C)c(CN3CCNC3=O)sc2n(CCCF)c1=O [Example 237, 1-(3-Fluoropropyl)-3-(2-methoxy-2-methylpropyl)-5-methyl-6-[(2-oxoimidazolidin-1-yl)methyl]thieno[2,3-d]pyrimidine-2,4(1H,3H)-dione]"
15,18 nM,"Cc1c(CN2CCNC2=O)sc2c1c(=O)n(CC(C)C)c(=O)n2CC1CCCO1 (single isomer, unassigned) [Example 197, 3-Isobutyl-5-methyl-6-[(2-oxoimidazolidin-1-yl)methyl]-1-(tetrahydrofuran-2-ylmethyl)thieno[2,3-d]pyrimidine-2,4(1H,3H)-dione]"
